Assay: Pharmacokinetic study in rats after oral administration of SYD extract and its single and combined TCM extracts (UPLC-MS/MS of plasma)
Settings: male, Sprague-Dawley, rat, plasma, po, n = 6; for AUC(0-t) / AUC(0-inf) / Cmax / MRT last / MRT inf / Tmax: rat plasma; for MRT last: MRT(0–t); for MRT inf: MRT(0–∞); for half-life: t1/2, rat plasma
[1] = 1.29 g/kg, oral AS extract 1.29 g/kg
[2] = 2.14 g·kg^−1 (extract), oral LJ + GU extract
[3] = 2.15 g/kg, oral LJ extract 2.15 g/kg
[4] = 2.43 g/kg, oral AS + GU extract 2.43 g/kg
[5] = 3.29 g·kg^−1 (extract), oral LJ + AS extract
[6] = 3.29 g·kg^−1 extract, oral LJ + AS extract
[7] = 4.5 g·kg^−1 (extract), oral LJ + SN extract
[8] = 4.5 g·kg^−1 extract, oral LJ + SN extract
[9] = 4.73 g/kg, oral LJ + SN + GU extract 4.73 g/kg
[10] = 5.43 g/kg, oral LJ + SN + AS extract 5.43 g/kg
[11] = 8.25 g/kg, oral SYD extract 8.25 g/kg

Question: Which AUC(0-t) [1] does the source give for O=C(/C=C/c1ccc(O)c(O)c1)O[C@@H]1C[C@](O)(C(=O)O)C[C@@H](O)[C@H]1O [Chlorogenic acid, chlorogenic acid] here?
Answer: 1360 ± 120 ng·h/mL

Question: And the AUC(0-inf) [1]?
Answer: 2130 ± 670 ng·h/mL

Question: What about the Cmax [1] of the same compound?
Answer: 390 ± 110 ng/mL

Question: What about the MRT last [1] of the same compound?
Answer: 1.56 ± 0.67 h

Question: What about the MRT inf [1] of the same compound?
Answer: 4.28 ± 2.23 h

Question: What about the Tmax [1] of the same compound?
Answer: 0.89 ± 0.33 h

Question: And the half-life [1]?
Answer: 3.54 ± 0.98 h

Question: And the AUC(0-inf) [2]?
Answer: 2930 ± 1000 ng·h/mL

Question: And the Cmax [2]?
Answer: 1070 ± 190 ng/mL

Question: What about the MRT last [2] of the same compound?
Answer: 3.85 ± 0.88 h

Question: And the MRT inf [2]?
Answer: 65 ± 64.6 h

Question: And the Tmax [2]?
Answer: 1.18 ± 0.78 h

Question: And the half-life [2]?
Answer: 8.15 ± 2.49 h

Question: What about the AUC(0-t) (2.14 g·kg^−1 extract, oral LJ + GU extract) of the same compound?
Answer: 1780 ± 290 ng·h/mL

Question: And the AUC(0-t) [3]?
Answer: 3940 ± 2120 ng·h/mL

Question: And the AUC(0-inf) [3]?
Answer: 5040 ± 2980 ng·h/mL

Question: And the Cmax [3]?
Answer: 2410 ± 830 ng/mL

Question: What about the MRT last [3] of the same compound?
Answer: 3.12 ± 0.75 h

Question: What about the MRT inf [3] of the same compound?
Answer: 24.7 ± 8.81 h

Question: And the Tmax [3]?
Answer: 1.11 ± 0.74 h

Question: What about the half-life [3] of the same compound?
Answer: 9.39 ± 2.87 h

Question: And the AUC(0-t) [4]?
Answer: 1150 ± 340 ng·h/mL

Question: And the AUC(0-inf) [4]?
Answer: 1980 ± 450 ng·h/mL

Question: What about the Cmax [4] of the same compound?
Answer: 290 ± 210 ng/mL

Question: And the MRT last [4]?
Answer: 1.78 ± 0.39 h

Question: And the MRT inf [4]?
Answer: 3.36 ± 2 h

Question: And the Tmax [4]?
Answer: 0.55 ± 0.48 h

Question: What about the half-life [4] of the same compound?
Answer: 2.78 ± 0.53 h

Question: What about the Cmax [5] of the same compound?
Answer: 1670 ± 480 ng/mL

Question: And the MRT last [5]?
Answer: 3.17 ± 0.75 h

Question: What about the MRT inf [5] of the same compound?
Answer: 37.6 ± 36.1 h

Question: And the Tmax [5]?
Answer: 1.36 ± 0.69 h

Question: What about the half-life [5] of the same compound?
Answer: 7.14 ± 1.59 h

Question: And the AUC(0-t) [6]?
Answer: 2820 ± 750 ng·h/mL

Question: What about the AUC(0-inf) [6] of the same compound?
Answer: 3770 ± 1220 ng·h/mL

Question: What about the MRT last [7] of the same compound?
Answer: 3.48 ± 0.86 h

Question: And the MRT inf [7]?
Answer: 46.8 ± 43.4 h

Question: What about the Tmax [7] of the same compound?
Answer: 1.36 ± 1.03 h

Question: And the half-life [7]?
Answer: 7.82 ± 2.6 h

Question: And the AUC(0-t) [8]?
Answer: 2800 ± 1160 ng·h/mL

Question: What about the AUC(0-inf) [8] of the same compound?
Answer: 4250 ± 2310 ng·h/mL

Question: What about the Cmax [8] of the same compound?
Answer: 1740 ± 750 ng/mL

Question: What about the AUC(0-t) [9] of the same compound?
Answer: 2190 ± 480 ng·h/mL

Question: What about the AUC(0-inf) [9] of the same compound?
Answer: 3410 ± 640 ng·h/mL

Question: And the Cmax [9]?
Answer: 1280 ± 510 ng/mL

Question: What about the MRT last [9] of the same compound?
Answer: 3.44 ± 0.29 h

Question: What about the MRT inf [9] of the same compound?
Answer: 69.3 ± 73.6 h

Question: What about the half-life [9] of the same compound?
Answer: 8.34 ± 1.07 h

Question: What about the AUC(0-t) [10] of the same compound?
Answer: 2550 ± 640 ng·h/mL

Question: And the AUC(0-inf) [10]?
Answer: 3690 ± 490 ng·h/mL

Question: What about the Cmax [10] of the same compound?
Answer: 1380 ± 370 ng/mL

Question: What about the MRT last [10] of the same compound?
Answer: 3.19 ± 0.32 h

Question: What about the MRT inf [10] of the same compound?
Answer: 59.5 ± 63.2 h

Question: What about the half-life [10] of the same compound?
Answer: 6.73 ± 1.7 h

Question: And the AUC(0-t) [11]?
Answer: 2540 ± 280 ng·h/mL

Question: What about the AUC(0-inf) [11] of the same compound?
Answer: 3650 ± 820 ng·h/mL

Question: And the Cmax [11]?
Answer: 1220 ± 80 ng/mL

Question: What about the MRT last [11] of the same compound?
Answer: 3.28 ± 0.5 h

Question: What about the MRT inf [11] of the same compound?
Answer: 52.6 ± 53.8 h

Question: What about the half-life [11] of the same compound?
Answer: 8.08 ± 1.67 h

Question: What about the half-life ([…], oral SN + AS + GU extract […]) of the same compound?
Answer: 7.95 ± 2.46 h

Source: paper PMC6150365, “Simultaneous Determination of Seven Components in Rat Plasma by the UPLC-MS/MS Method and Application of Pharmacokinetic Studies to SimiaoYong’an Decoction” (Molecules : A Journal of Synthetic Chemistry and Natural …, 2017)
